Assay results taken from patent US20240158446A1, “CYCLIC COMPOUND HAVING SELECTIVE INHIBITORY ACTION ON KRAS OVER HRAS AND NRAS” (CHUGAI SEIYAKU KABUSHIKI KAISHA, priority 2021, published 2024).
pKd: −log10 of the molar value.

Legend:
[1] = target: GDP-bound KRAS wild-type protein (Homo sapiens, UniProt P01116); experiment: Binding to KRAS by surface plasmon resonance (SPR), Single Cycle Kinetics; details: SPR, Single Cycle Kinetics, GDP-bound KRAS wild-type protein; read-out: KRAS KD
[2] = tested on: human lung cancer strain NCI-H441; experiment: cells; details: NCI-H441, 96 h, read-out: NCI-H441 IC50 (nM), NCI-H441 cell proliferation, 4 days, CellTiter-Glo;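 also: cell proliferation inhibition after four days measured by CellTiter-Glo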
[3] = target: GDP-bound NRAS wild-type protein (Homo sapiens, UniProt P01111); experiment: Binding to NRAS by surface plasmon resonance (SPR), Single Cycle Kinetics; details: ratio of KD for GDP-bound NRAS wild-type protein to KD for KRAS, SPR
[4] = target: GDP-bound HRAS wild-type protein (Homo sapiens, UniProt P01112); experiment: Binding to HRAS by surface plasmon resonance (SPR), Single Cycle Kinetics; details: ratio of KD for GDP-bound HRAS wild-type protein to KD for KRAS, SPR
Sequence of GDP-bound HRAS wild-type protein (P01112 whole entry): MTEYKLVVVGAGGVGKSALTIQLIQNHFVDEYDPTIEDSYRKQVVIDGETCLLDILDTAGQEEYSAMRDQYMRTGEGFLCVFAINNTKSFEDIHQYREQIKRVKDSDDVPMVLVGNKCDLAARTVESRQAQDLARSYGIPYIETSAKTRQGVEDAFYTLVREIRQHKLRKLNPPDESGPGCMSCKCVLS

Sequence of GDP-bound KRAS wild-type protein (P01116 whole entry): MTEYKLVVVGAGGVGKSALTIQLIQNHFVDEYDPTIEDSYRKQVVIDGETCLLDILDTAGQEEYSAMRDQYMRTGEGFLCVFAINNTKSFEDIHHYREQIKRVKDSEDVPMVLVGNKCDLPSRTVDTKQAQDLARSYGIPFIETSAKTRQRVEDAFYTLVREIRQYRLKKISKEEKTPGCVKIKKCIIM
Sequence of GDP-bound NRAS wild-type protein (P01111 whole entry): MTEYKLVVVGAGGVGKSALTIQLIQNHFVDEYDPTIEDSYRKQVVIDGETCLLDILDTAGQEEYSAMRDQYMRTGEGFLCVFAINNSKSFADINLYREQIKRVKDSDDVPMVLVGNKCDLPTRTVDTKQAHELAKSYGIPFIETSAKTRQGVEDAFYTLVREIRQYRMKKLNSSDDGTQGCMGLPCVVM

Structure (SMILES) | pKd [1] | IC50 [2] [nM] | NRAS/KRAS (KD ratio) [3] | HRAS/KRAS (KD ratio) [4]
CC[C@H](C)[C@@H]1NC(=O)[C@H](CC(F)F)N(C)C(=O)C[C@@H](C(=O)N(C)C)N(C)C(=O)[C@H](C2CCCC2)N(C)C(=O)C2(CC(C)(C)C2)NC(=O)[C@@H]2C[C@H](C)CN2C(=O)[C@H](CCc2ccc(C(F)(F)F)c(OC)c2)NC(=O)CN(C)C(=O)[C@H](Cc2ccc(C)cc2)N2CC/C=C\C[C@@H](C2=O)N(C)C(=O)CN(C)C1=O [PP1875] | 10.08 | 7.7 | – | –
CC[C@H](C)[C@@H]1NC(=O)[C@H](CC2CC2)N(C)C(=O)C[C@@H](C(=O)N(C)CC)N(C)C(=O)[C@H](C2CCCC2)N(C)C(=O)C2(CCC2)NC(=O)[C@@H]2C[C@@H](C)CN2C(=O)[C@H](CCc2ccc(C(F)(F)F)c(OC)c2)NC(=O)CN(C)C(=O)[C@H](Cc2ccc(C)cc2)N2CC/C=C\C[C@@H](C2=O)N(C)C(=O)CN(C)C1=O [PP1900] | 9.77 | 24.7 | – | –
CCO[C@@H]1C[C@H]2C(=O)NC3(CCC3)C(=O)N(C)[C@@H](C3CCCC3)C(=O)N(C)[C@H](C(=O)N(C)CC)CC(=O)N(C)[C@@H](C3CCC3)C(=O)N[C@@H]([C@@H](C)CC)C(=O)N(C)CC(=O)N(C)[C@H]3C/C=C\CCN(C3=O)[C@@H](Cc3ccc(C(F)(F)F)cc3)C(=O)N(C)CC(=O)N[C@@H](CCc3ccc(C(F)(F)F)c(OC)c3)C(=O)N2C1 [PP2022] | – | 2.7 | A (a compound having 10 or more and less than 20 is denoted as A) | A (a compound having 10 or more and less than 20 is denoted as A)
CCCOC[C@H]1C(=O)N[C@@H]([C@@H](C)CC)C(=O)N(C)CC(=O)N(C)[C@H]2C/C=C\CCN(C2=O)[C@@H](Cc2ccc(C(F)(F)F)cc2)C(=O)N(C)CC(=O)N[C@@H](CCc2ccc(C(F)(F)F)c(OC)c2)C(=O)N2C[C@@H](C)C[C@H]2C(=O)NC2(CC(C)(C)C2)C(=O)N(C)[C@@H](C2CCCC2)C(=O)N(C)[C@H](C(=O)N(C)C)CC(=O)N1C [PP1997] | – | 14.2 | A (a compound having 10 or more and less than 20 is denoted as A) | B (a compound having 3 or more and less than 10 is denoted as B)
CCC[C@H]1C(=O)N[C@@H]([C@@H](C)CC)C(=O)N(C)CC(=O)N(C)[C@H]2C/C=C\CCN(C2=O)[C@@H](Cc2ccc(C)cc2)C(=O)N(C)CC(=O)N[C@@H](CCc2ccc(C(F)(F)F)c(OC)c2)C(=O)N2C[C@H](C)C[C@H]2C(=O)NC2(CC(C)(C)C2)C(=O)N(C)[C@@H](C2CCCC2)C(=O)N(C)[C@H](C(=O)N(C)C)CC(=O)N1C [PP1890] | – | 3.6 | A (a compound having 10 or more and less than 20 is denoted as A) | B (a compound having 3 or more and less than 10 is denoted as B)
CCO[C@@H]1C[C@H]2C(=O)NC3(CCC3)C(=O)N(C)[C@@H](C(CC)CC)C(=O)N(C)[C@H](C3CCC3)CC(=O)N(C)[C@@H](CC3CC3)C(=O)N[C@@H]([C@@H](C)CC)C(=O)N(C)CC(=O)N(C)[C@H]3C/C=C\CCN(C3=O)[C@@H](Cc3ccc(C(F)(F)F)cc3)C(=O)N(C)CC(=O)N[C@@H](CCc3cc(F)c(C(F)(F)F)c(F)c3)C(=O)N2C1 [PP1636] | – | 95.2 | A (a compound having 10 or more and less than 20 is denoted as A) | A (a compound having 10 or more and less than 20 is denoted as A)
CC[C@H](C)[C@@H]1NC(=O)[C@H](CC2CC2)N(C)C(=O)C[C@@H](C(=O)N(C)C)N(C)C(=O)[C@H](C2CCCC2)N(C)C(=O)C2(CCC2)N(C)C(=O)[C@@H]2C[C@@H](C)CN2C(=O)[C@H](CCc2cc(F)c(C(F)(F)F)c(F)c2)NC(=O)CN(C)C(=O)[C@H](Cc2ccc(C)cc2)N2CC/C=C\C[C@@H](C2=O)N(C)C(=O)[C@@H]2CCCN2C1=O [PP1801] | – | 13 | A (a compound having 10 or more and less than 20 is denoted as A) | B (a compound having 3 or more and less than 10 is denoted as B)

Continued, in another order:

pKd [1] | IC50 [2] [nM] | Structure (SMILES) | NRAS/KRAS (KD ratio) [3] | HRAS/KRAS (KD ratio) [4]
9.96 | 22.5 | CCC[C@H]1C(=O)N[C@@H]([C@@H](C)CC)C(=O)N(C)CC(=O)N(C)[C@H]2C/C=C\CCN(C2=O)[C@@H](Cc2ccc(C)cc2)C(=O)N(C)CC(=O)N[C@@H](CCc2ccc(C(F)(F)F)c(Cl)c2)C(=O)N2C[C@@H](C)C[C@H]2C(=O)NC2(CCC2)C(=O)N(C)[C@@H](C2CCCC2)C(=O)N(C)[C@H](C(=O)N(C)CC)CC(=O)N1C [PP1848] | – | –
9.92 | 20.2 | CC[C@H](C)[C@@H]1NC(=O)[C@H](CC)N(C)C(=O)C[C@@H](C(=O)N(C)CC)N(C)C(=O)[C@H](C2CCCC2)N(C)C(=O)C2(CC(C)(C)C2)NC(=O)[C@@H]2C[C@H](C)CN2C(=O)[C@H](CCc2cc(F)c(C(F)(F)F)c(F)c2)NC(=O)CN(C)C(=O)[C@H](Cc2ccc(C)cc2)N2CC/C=C\C[C@@H](C2=O)N(C)C(=O)CN(C)C1=O [PP1882] | – | –
– | 34.6 | CCCN(C)C(=O)[C@@H]1CC(=O)N(C)[C@@H](CC(C)C)C(=O)N[C@@H]([C@@H](C)CC)C(=O)N(C)CC(=O)N(C)[C@H]2C/C=C\CCN(C2=O)[C@@H](Cc2ccc(C(F)(F)F)cc2)C(=O)N(C)CC(=O)N[C@@H](CCc2cc(F)c(C(F)(F)F)c(F)c2)C(=O)N2C[C@H](OCC)C[C@H]2C(=O)NC2(COC2)C(=O)N(C)[C@@H](C2CCCC2)C(=O)N1C [PP1938] | AA (a compound having 20 or more is denoted as AA) | A (a compound having 10 or more and less than 20 is denoted as A)
– | 1.1 | CCCC[C@H]1C(=O)N[C@@H]([C@@H](C)CC)C(=O)N(C)CC(=O)N(C)[C@H]2C/C=C\CCN(C2=O)[C@@H](Cc2ccc(C(F)(F)F)cc2)C(=O)N(C)CC(=O)N[C@@H](CCc2cc(F)c(C(F)(F)F)c(F)c2)C(=O)N2C[C@H](F)C[C@H]2C(=O)NC2(CC(C)(C)C2)C(=O)N(C)[C@@H](C2CCCC2)C(=O)N(C)[C@H](C(=O)N(C)C)CC(=O)N1C [PP1693] | AA (a compound having 20 or more is denoted as AA) | A (a compound having 10 or more and less than 20 is denoted as A)
– | 13.4 | CCCN(C)C(=O)[C@@H]1CC(=O)N(C)[C@@H](COCC)C(=O)N[C@@H]([C@@H](C)CC)C(=O)N(C)CC(=O)N(C)[C@H]2C/C=C\CCN(C2=O)[C@@H](Cc2ccc(C(F)(F)F)cc2)C(=O)N(C)CC(=O)N[C@@H](CCc2ccc(C(F)(F)F)c(OC)c2)C(=O)N2C[C@@H](C)C[C@H]2C(=O)NC2(CCC2)C(=O)N(C)[C@@H](C2CCCC2)C(=O)N1C [PP2025] | A (a compound having 10 or more and less than 20 is denoted as A) | B (a compound having 3 or more and less than 10 is denoted as B)
– | 2.5 | CCCOC[C@H]1C(=O)N[C@@H]([C@@H](C)CC)C(=O)N(C)CC(=O)N(C)[C@H]2C/C=C\CCN(C2=O)[C@@H](Cc2ccc(C(F)(F)F)cc2)C(=O)N(C)CC(=O)N[C@@H](CCc2ccc(C(F)(F)F)c(OC)c2)C(=O)N2C[C@H](OCC)C[C@H]2C(=O)NC2(CCC2)C(=O)N(C)[C@@H](C2CCCC2)C(=O)N(C)[C@H](C(=O)N(C)CCC)CC(=O)N1C [PP2017] | A (a compound having 10 or more and less than 20 is denoted as A) | A (a compound having 10 or more and less than 20 is denoted as A)
– | 17.7 | CCCN(C)C(=O)[C@@H]1CC(=O)N(C)[C@@H](CC(F)F)C(=O)N[C@@H]([C@@H](C)CC)C(=O)N(C)CC(=O)N(C)[C@H]2C/C=C\CCN(C2=O)[C@@H](Cc2ccc(C(F)(F)F)cc2)C(=O)N(C)CC(=O)N[C@@H](CCc2cc(F)c(C(F)(F)F)c(F)c2)C(=O)N2C[C@@H](C)C[C@H]2C(=O)NC2(CCC2)C(=O)N(C)[C@@H](C2CCCC2)C(=O)N1C [PP2000] | A (a compound having 10 or more and less than 20 is denoted as A) | B (a compound having 3 or more and less than 10 is denoted as B)
– | 14 | CCCOC[C@H]1C(=O)N[C@@H]([C@@H](C)CC)C(=O)N(C)CC(=O)N(C)[C@H]2C/C=C\CCN(C2=O)[C@@H](Cc2ccc(C(F)(F)F)cc2)C(=O)N(C)CC(=O)N[C@@H](CCc2ccc(C(F)(F)F)c(OC)c2)C(=O)N2C[C@@H](C)C[C@H]2C(=O)NC2(CCC2)C(=O)N(C)[C@@H](C2CCCC2)C(=O)N(C)[C@H](C(=O)N(C)CC)CC(=O)N1C [PP2027] | A (a compound having 10 or more and less than 20 is denoted as A) | B (a compound having 3 or more and less than 10 is denoted as B)
– | 6.5 | CC[C@H](C)[C@@H]1NC(=O)[C@H](CC2CC2)N(C)C(=O)C[C@@H](C(=O)N(C)C)N(C)C(=O)[C@H](C2CCCC2)N(C)C(=O)C2(CCC2)N(C)C(=O)[C@@H]2C[C@@H](C)CN2C(=O)[C@H](CCc2cc(F)c(C(F)(F)F)c(F)c2)NC(=O)CN(C)C(=O)[C@H](Cc2ccc(C)cc2)N2CC/C=C\C[C@@H](C2=O)N(C)C(=O)CN(C)C1=O [PP1800] | A (a compound having 10 or more and less than 20 is denoted as A) | A (a compound having 10 or more and less than 20 is denoted as A)
